The record followed here is US20240166681A1, “3'3' CYCLIC DINUCLEOTIDES CONTAINING ISONUCLEOTIDIC UNITS” (INSTITUTE OF ORGANIC CHEMISTRY AND BIOCHEMISTRY AS CR, V. …, priority 2021, published 2024).

The target in the first assay is T1, AQ STING (G230A-R293Q) (Homo sapiens, UniProt Q86WV6, G230A/H232R/R293Q).
T1 construct: truncated human WT STING or AQ STING (amino acid residues 140-343); 8xHis (N, cleaved yes); SUMO (N, cleaved yes); made in house; host or cells: E. coli Rosetta-gami B (DE3)
T1 sequence (Q86WV6 140-343 G230A/H232R/R293Q): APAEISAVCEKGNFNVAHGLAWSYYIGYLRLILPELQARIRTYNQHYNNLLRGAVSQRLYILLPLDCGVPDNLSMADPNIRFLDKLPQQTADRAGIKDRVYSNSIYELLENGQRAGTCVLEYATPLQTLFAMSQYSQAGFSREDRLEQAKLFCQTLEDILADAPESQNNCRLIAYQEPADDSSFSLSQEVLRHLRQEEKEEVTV
The assay is described as follows: Differential scanning fluorimetry with AQ STING. In kind it is binding. To be noted: thermal shift, truncated human AQ STING 0.1 mg/ml, 150 μM CDN. An excerpt: Both WT and AQ human STING (G230A-R293Q) cDNA were amplified by the use of PCR (Phusion® High-Fidelity DNA Polymerase, cat. #M0530S, NEB, Ipswich, USA) using oligonucleotides hSTING140-BamH-For ([…]) (SEQ ID NO:5) and hSTING379-Not-Rev3 ([…]) (SEQ ID NO:6) from pUNO1-hSTING-WT (cat. #puno1-hstingwt, InvivoGen, San Diego, USA) and pUNO1-hSTING-HAQ plasmids (punol-hsting-haq, InvivoGen, San Diego, USA). Purified PCR products were cleaved with restriction enzymes BamHI (cat. #R0136S, NEB, Ipswich, USA) and Notl (cat. #R0189S, NEB, Ipswich, USA) and cloned into the pSUMO vector linearized with the identical enzymes. Plasmid pSUMO was created by introducing 8-His-SUMO sequence between Ndel and BamHI sites of pHis-parallel2 plasmid (Clontech, Moutain View, USA). pSUMO-STING WT or pSUMO-STING AQ plasmids thus encoded truncated human WT STING or AQ STING (amino acid residues 140-343) with N-terminal 8xHis and SUMO tag.
The recombinant WT STING and AQ STING proteins were overexpressed in Rosetta-gami B (DE3) competent cells (cat. #71136-3, Merck Millipore, Billerica, USA). Bacterial pellets were re-suspended in ice-cold lysis buffer containing 50 mmol·l^−1 TrisCl (cat. #T1503, Sigma Aldrich, Czech Republic) pH 8.0, 300 mmol·l^−1 NaCl, 3 mmol·l^−1 β-mercaptoethanol (cat. #M6250, Sigma Aldrich, Czech Republic), 10% glycerol (cat. #G5516, Sigma Aldrich, Czech Republic) and 20 mmol·l^−1 imidazole (cat. #15513, Sigma Aldrich, Czech Republic) using Dounce homogenizer. DNase I (cat. #D5025, Sigma Aldrich, Czech Republic) and RNase A (cat. #R6513, Sigma Aldrich, Czech Republic) were added (final concentration 50 μg/ml) together with MgCl2 (final concentration 5 mmol·l^−1) to the homogenate and bacteria were lysed using French Press G-M™ High-Pressure Cell Press Homogenizer (1500 psi, 3 cycles). Lysate was spun 30,000 g for 20 minutes and supernatant was gently stirred with Ni-NTA resin (cat. #745400.25 Macherey-Nagel, Duren, Germany) for 30 minutes. The resin was poured into a chromatography column, washed with 50 ml buffer A (50 mmol·l^−1 TrisCl (pH 8.0), 800 mmol·l^−1 NaCl, 3 mmol·l^−1 (3-mercaptol; 10% glycerol; 20 mmol·l^−1 imidazole) and 8-His-SUMO tagged STING proteins were eluted with 15 ml buffer A containing 300 mmol·l^−1 imidazole. The eluted proteins were cleaved with recombinant SUMO protease (80 μg/ml of protein solution, cat. #12588018, ThermoFisher, Waltham, USA). The proteins were further purified by size exclusion chromatography using HiLoad 16/60 Superdex 75 (cat. #28989333, GE Healthcare Bio-Sciences, Pittsburgh, USA) in 50 mmol·l^−1 Tris Cl buffer pH 7.4 containing 150 mmol·l^−1 NaCl, and 10% glycerol. Proteins were concentrated with Amicon® Ultra-15 10 K device (cat. #UFC901008, Merck Millipore, Billerica, USA) and flash frozen in liquid N2.
WT and AQ allelic forms of STING protein were diluted to the final concentration 0.1 mg/ml in 100 mmol·l^−1 TrisCl buffer pH 7.4 containing, 150 mmol·l^−1 NaCl, 1:500 SYPRO Orange (cat. #S6650, ThermoFisher, Waltham, USA) and 150 μM CDN or water. 20 μL solutions of the reaction mixtures were pipetted in triplicates into 96 well optical reaction plates and thermal denaturation of samples were performed on real time PCR cycler (LightCycler® 480 Instrument II—Roche, Basel, Switzerland). The first derivative of the thermal denaturation curves was performed to calculate denaturing temperatures of STING—CDN complexes and STING apoproteins. The thermal shift for each CDN was calculated by subtracting the average denaturing temperature of STING apoprotein from the average denaturing temperature of STING CDN complex.
In the case of `Nc1ncnc2c1ncn2[C@@H]1CO[C@@H]2COP(=O)(S)O[C@H]3[C@@H](F)[C@H](n4cnc5c(N)ncnc54)O[C@@H]3COP(=O)(S)O[C@@H]12` (stereo partly drawn) [Compound 55, (1S,6R,8R,9R,10R,15R,18R)-8,18-bis(6-amino-9H-purin-9-yl)-9-fluoro-3,12-disulfanyl-2,4,7,11,13,16-hexaoxa-3λ^5,12λ^5-diphosphatricyclo[13.3.0.0^6,10]octadecane-3,12-dione], the “DSF ΔTm AQ STING” value was 20.0 °C.

Staying with this assay, now noted: thermal shift, truncated human AQ STING 0.1 mg/ml, 150 μM CDN; read-out: DSF ΔTm AQ STING.
Turning to `Nc1ncnc2c1ncn2[C@@H]1CO[C@@H]2COP(=O)(S)O[C@H]3[C@@H](F)[C@H](n4cnc5c(N)ncnc54)O[C@@H]3COP(=O)(S)O[C@@H]12` (stereo partly drawn) [Compound 54, (1S,6R,8R,9R,10R,15R,18R)-8,18-bis(6-amino-9H-purin-9-yl)-9-fluoro-3,12-disulfanyl-2,4,7,11,13,16-hexaoxa-3λ^5,12λ^5-diphosphatricyclo[13.3.0.0^6,10]octadecane-3,12-dione], the ΔTm at 150 µM came to 17.2 °C.
Still for that read-out and setting: then `Nc1nc2c(ncn2[C@@H]2CO[C@@H]3COP(=O)(O)O[C@H]4C[C@H](n5cnc6c(N)ncnc65)O[C@@H]4COP(=O)(O)O[C@@H]23)c(=O)[nH]1` [Compound 53, (1S,6R,8R,10S,15R,18R)-18-(2-amino-6-oxo-6,9-dihydro-1H-purin-9-yl)-8-(6-amino-9H-purin-9-yl)-3,12-dihydroxy-2,4,7,11,13,16-hexaoxa-3λ^5,12λ^5-diphosphatricyclo[13.3.0.0^6,10]octadecane-3,12-dione], with 11.5 °C; and `Nc1ncnc2c1ncn2[C@@H]1CO[C@@H]2COP(=O)(O)O[C@H]3C[C@H](n4cnc5c(N)ncnc54)O[C@@H]3COP(=O)(O)O[C@@H]12` [Compound 50, (1S,6R,8R,10S,15R,18R)-8,18-bis(6-amino-9H-purin-9-yl)-3,12-dihydroxy-2,4,7,11,13,16-hexaoxa-3λ^5,12λ^5-diphosphatricyclo[13.3.0.0^6,10]octadecane-3,12-dione], with 9.3 °C.
Same read-out and setting: next, `Nc1nc2c(ncn2[C@@H]2CO[C@@H]3COP(=O)(O)O[C@H]4[C@H](n5cnc6c(N)ncnc65)CO[C@@H]4COP(=O)(O)O[C@@H]23)c(=O)[nH]1` [Compound 52, (1S,6R,9R,10S,15R,18R)-9-(2-amino-6-oxo-6,9-dihydro-1H-purin-9-yl)-18-(6-amino-9H-purin-9-yl)-3,12-dihydroxy-2,4,7,11,13,16-hexaoxa-3λ^5,12λ^5-diphosphatricyclo[13.3.0.0^6,10]octadecane-3,12-dione]: 10.7 °C; `Nc1ncnc2c1ncn2[C@@H]1CC[C@@H]2COP(=O)(O)O[C@H]3[C@@H](F)[C@H](n4cnc5c(N)ncnc54)O[C@@H]3COP(=O)(O)O[C@H]21` [Compound 34, (1R,6R,8R,9R,10R,15R,18R)-8,18-bis(6-amino-9H-purin-9-yl)-9-fluoro-3,12-dihydroxy-2,4,7,11,13-pentaoxa-3λ^5,12λ^5-diphosphatricyclo[13.3.0.0^6,10]octadecane-3,12-dione]: 9.2 °C.
The same measure, in the same setting: next, `Nc1nc2c(ncn2[C@@H]2O[C@@H]3COP(=O)(O)O[C@H]4[C@H](n5cnc6c(N)ncnc65)CO[C@@H]4COP(=O)(O)O[C@H]3[C@H]2F)c(=O)[nH]1` [Compound 24, (1S,6R,8R,9R,10R,15R,18R)-8-(2-amino-6-oxo-6,9-dihydro-1H-purin-9-yl)-18-(6-amino-9H-purin-9-yl)-9-fluoro-3,12-dihydroxy-2,4,7,11,13,16-hexaoxa-3λ^5,12λ^5-diphosphatricyclo[13.3.0.0^6,10]octadecane-3,12-dione]: 16.9 °C; `Nc1ncnc2c1ncn2[C@@H]1CO[C@@H]2COP(=O)(O)O[C@H]3[C@@H](F)[C@H](n4cnc5c(N)ncnc54)O[C@@H]3COP(=O)(O)O[C@@H]12` [Compound 28, (1S,6R,8R,9R,10R,15R,18R)-8,18-bis(6-amino-9H-purin-9-yl)-9-fluoro-3,12-dihydroxy-2,4,7,11,13,16-hexaoxa-3λ^5,12λ^5-diphosphatricyclo[13.3.0.0^6,10]octadecane-3,12-dione]: 13.3 °C.
Consider `Nc1nc2c(ncn2[C@@H]2CO[C@@H]3COP(=O)(O)O[C@H]4[C@@H](F)[C@H](n5cnc6c(N)ncnc65)O[C@@H]4COP(=O)(O)O[C@@H]23)c(=O)[nH]1` [Compound 51, (1S,6R,8R,9R,10R,15R,18R)-18-(2-amino-6-oxo-6,9-dihydro-1H-purin-9-yl)-8-(6-amino-9H-purin-9-yl)-9-fluoro-3,12-dihydroxy-2,4,7,11,13,16-hexaoxa-3λ^5,12λ^5-diphosphatricyclo[13.3.0.0^6,10]octadecane-3,12-dione], for which the shift in melting temperature (ΔTm) at 150 µM turned out to be 15.8 °C.
